Test results as given in patent US11364275B2, “Linear lipopeptide paenipeptins and methods of using the same” (priority 2017, dated 2022).
Where a SMILES comes first, the peptide text is derived from it. [ ]: non-standard residue; d: D form. The star is where a group is joined. Dab = NCC[C@H](N)C(=O)O; Cbz = O=C(OCc1ccccc1)*

Columns and labels:
Assay type in all cases: cell-based
[1] = test system: rabbit red blood cells; assay: Hemolytic activity; conditions: for Hemolysis: relative to Triton X-100
Outline: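 Washed defibrinated rabbit RBCs in PBS pH 7.2 incubated 30 min at 37 °C with paenipeptin analogues at 16–128 μg/mL final. Released hemoglobin read at 415 nm in the supernatant; % hemolysis relative to 0.1% Triton X-100.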

[2] = test system: Acinetobacter baumannii ATCC 19606; assay: MIC of antibiotics with or without paenipeptin analogues (potentiation); conditions: A. baumannii ATCC 19606
Source text: (§1) Gram-negative bacteria, including Acinetobacter and Klebsiella, are intrinsically resistant to the hydrophobic antibiotic rifampicin.

[3] = test system: Klebsiella pneumoniae ATCC 13883; assay: as above; conditions: K. pneumoniae ATCC 13883
Source text: as §1

Structure (SMILES): CC[C@H](C)[C@H](NC(=O)[C@H](CCN)NC(=O)OCc1ccccc1)C(=O)N[C@@H](CCN)C(=O)N[C@H](Cc1ccccc1)C(=O)N[C@@H](CC(C)C)C(=O)N[C@@H](CCN)C(=O)N[C@@H](C(=O)N[C@@H](CC(C)C)C(=O)N[C@@H](CO)C(N)=O)C(C)C [Analogue 15] (Cbz-[Dab]I[Dab][dF]L[Dab][dV]LS-NH2)
- Hemolysis ([1]; 16 μg/mL): 0.77 ± 0.15%
- Hemolysis ([1]; 32 μg/mL): 0.41 ± 0.67%
- Hemolysis ([1]; 64 μg/mL): 0.54 ± 0.70%
- hemolytic activity (in words) ([1]; 128 μg/mL): nonhemolytic
- Hemolysis ([1]; 128 μg/mL): 0.65 ± 0.29%
- MIC of rifampicin at 2 μg/mL of paenipeptin analogue [2]: 0.0019-0.0039 μg/ml
- MIC of rifampicin at 2 μg/mL of paenipeptin analogue [3]: 0.0039 μg/ml
- MIC of rifampicin at 4 μg/mL of paenipeptin analogue [3]: 0.00195-0.0039 μg/ml
- Sensitization factor (rifampicin) ([3]; MIC without / with 4 μg/mL paenipeptin): 4,096-8,192
